As a reminder, the IC50 is the point on the concentration scale where inhibition reaches its midpoint.

For assay [1], the target named is T1, recombinant human LTA4 hydrolase (rhLTA4H) (Homo sapiens, UniProt P09960).
T1 construct: made in house; host or cells: Spodoptera frugiperda (Sf-9) cells, recombinant baculovirus (pFastBac1)
T1 sequence (P09960 1-611): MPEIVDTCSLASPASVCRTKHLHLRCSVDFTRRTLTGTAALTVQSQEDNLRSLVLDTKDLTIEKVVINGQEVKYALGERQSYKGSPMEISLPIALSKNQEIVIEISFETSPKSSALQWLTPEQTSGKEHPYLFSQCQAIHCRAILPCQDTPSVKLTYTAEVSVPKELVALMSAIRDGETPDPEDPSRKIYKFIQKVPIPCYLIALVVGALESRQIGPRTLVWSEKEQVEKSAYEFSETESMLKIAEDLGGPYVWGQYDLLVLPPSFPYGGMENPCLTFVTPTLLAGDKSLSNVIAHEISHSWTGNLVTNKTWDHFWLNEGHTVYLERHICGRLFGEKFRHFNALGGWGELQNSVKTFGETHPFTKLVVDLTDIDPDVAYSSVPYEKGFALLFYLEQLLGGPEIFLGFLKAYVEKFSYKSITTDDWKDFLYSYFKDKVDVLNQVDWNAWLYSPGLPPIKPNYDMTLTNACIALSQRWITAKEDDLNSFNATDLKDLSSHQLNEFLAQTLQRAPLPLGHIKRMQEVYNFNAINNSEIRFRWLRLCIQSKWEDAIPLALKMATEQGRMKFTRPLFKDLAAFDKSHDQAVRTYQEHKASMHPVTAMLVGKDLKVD
In words: Recombinant human LTA4 hydrolase assay for LTA4 hydrolase inhibitor activity. Format: biochemical. Particulars: rhLTA4H, LTA4 substrate, LTB4 by immunoassay; single determination or average; read-out: IC50. The procedure, abridged: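 LTB4 formed from LTA4 substrate (free acid from the methyl ester) was quantified by enzyme immunoassay after a 30 min rt reaction. Enzyme was 10 ng Sf-9-expressed human LTA4 hydrolase, pre-incubated 10 min with compound.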

The test system of assay [2] is LTB4 production by calcium ionophore-stimulated murine blood. Kind of assay: LTB4 production by calcium ionophore-stimulated murine blood for LTA4H inhibitor activity. The format is cell-based, CD-1 mice. Particulars: Mus musculus; murine blood diluted 1 in 15, calcium ionophore A23187, LTB4 by immunoassay; read-out: IC50. The method, then:
Assay 2: LTB4 Production by Calcium Ionophore-Stimulated Murine Blood for LTA4H Inhibitor Activity
CD-1 mice were sacrificed, and blood was collected in heparin-containing syringes by cardiac puncture. […] After the microtiter plate contents were incubated for 15 min at 37° C. in a humidified incubator, calcium ionophore A23187 (Sigma Chemical Co., St. Louis, Mo.) was added to each sample well (final concentration=7 μg/mL). The incubation was continued under the same conditions for an additional 30 min to allow LTB4 formation. The reaction was terminated by centrifugation (833×g, 10 min at 4° C.), and supernatants were analyzed for LTB4 by a commercially available enzyme-linked immunoassay (Cayman Chemical Co.) according to the manufacturer's instructions. Positive controls, under essentially identical conditions but without addition of an inhibitor compound, and negative unstimulated controls, containing all assay components except calcium ionophore, were routinely run in each experiment. […] The values presented here are the result of a single determination or an average of two or more determinations, as indicated in parentheses following each value. For compounds tested three or more times, the average value is followed by the standard deviation

Consider `OC1(c2ccc(Cl)cc2)CCN(CCc2ccc(Oc3nc4ncccc4s3)cc2)CC1` [Example 47, 4-(4-Chlorophenyl)-1-{2-[4-([1,3]thiazolo[4,5-b]pyridin-2-yloxy)phenyl]ethyl}piperidin-4-ol], for which the half-inhibitory concentration (IC50) in assay [1] was 34 nM; in assay [2], 210 nM. On the same counts, the results for `CC(=O)N[C@H]1C[C@H]2CC[C@@H](C1)N2Cc1ccc(Oc2nc3cnccc3s2)cc1` [Example 134, meso-N-{(3-endo)-8-[4-([1,3]Thiazolo[4,5-c]pyridin-2-yloxy)benzyl]-8-azabicyclo[3.2.1]oct-3-yl}acetamide] are 38 nM and 180 nM. On the same counts, the results for `c1cnc2nc(Oc3ccc(CNCCN4CCCCC4)cc3)sc2c1` [Example 91, 2-Piperidin-1-yl-N-[4-([1,3]thiazolo[4,5-b]pyridin-2-yloxy)benzyl]ethanamine] are 39 nM and 680 nM. On the same counts, the results for `c1cncc(OC2CCN(Cc3ccc(Oc4nc5ncccc5s4)cc3)CC2)c1` [Example 98, 2-(4-{[4-(Pyridin-3-yloxy)piperidin-1-yl]methyl}phenoxy)[1,3]thiazolo[4,5-b]pyridine] are 6 nM and 9 nM.

Consider `c1ccc2c(c1)CCN(CCOc1ccc(Oc3nc4ncccc4s3)cc1)C2` [Example 6, 2-{2-[4-([1,3]Thiazolo[4,5-b]pyridin-2-yloxy)phenoxy]ethyl}-1,2,3,4-tetrahydroisoquinoline], for which the half-maximal inhibitory concentration (IC50) in assay [1] came out at 9 nM; in assay [2], 64 nM.

With `F[C@@H]1CCN(Cc2ccc(Oc3nc4ncccc4s3)cc2)C1` [Example 87, 2-(4-{[(3R)-3-Fluoropyrrolidin-1-yl]methyl}phenoxy)[1,3]thiazolo[4,5-b]pyridine], the IC50 in assay [1] was 30 nM; in assay [2] it was 24 nM. For `OC1CCN(Cc2ccc(Oc3nc4ncccc4s3)cc2)CC1` [Example 137, 1-[4-([1,3]Thiazolo[4,5-b]pyridin-2-yloxy)benzyl]piperidin-4-ol] the same measures were 8 nM and 5.6 nM. On the same counts, the results for `OC1(c2ccccc2)CCN(CCOc2ccc(Oc3nc4nccnc4s3)cc2)CC1` [Example 22, 4-Phenyl-1-{2-[4-([1,3]thiazolo[4,5-b]pyrazin-2-yloxy)phenoxy]ethyl}piperidin-4-ol] are 62 nM and 200 nM. Consider `c1ccc(C2CCN(CCOc3ccc(Oc4nc5cccnc5s4)cc3)CC2)nc1` [Example 38, 2-{4-[2-(4-Pyridin-2-ylpiperidin-1-yl)ethoxy]phenoxy}[1,3]thiazolo[5,4-b]pyridine], for which the IC50 was determined as 61 nM in assay [1] and 950 nM in assay [2]. On the same counts, the results for `c1cncc(OC2CCN(CCOc3ccc(Oc4nc5ncccc5s4)cc3)CC2)c1` [Example 4, 2-(4-{2-[4-(Pyridin-3-yloxy)piperidin-1-yl]ethoxy}phenoxy)[1,3]thiazolo[4,5-b]pyridine] are 9 nM and 54 nM. `OC1(c2cccc(C(F)(F)F)c2)CCN(Cc2ccc(Oc3nc4ncccc4s3)cc2)CC1` [Example 103, 1-[4-([1,3]Thiazolo[4,5-b]pyridin-2-yloxy)benzyl]-4-[3-(trifluoromethyl)phenyl]piperidin-4-ol]: the IC50 in assay [1] was determined as 10 nM; in assay [2], 120 nM. On the same counts, the results for `CC(=O)N[C@H]1C[C@H]2CC[C@@H](C1)N2Cc1ccc(Oc2nc3cccnc3s2)cc1` [Example 119, meso-N-{(3-endo)-8-[4-([1,3]Thiazolo[5,4-b]pyridin-2-yloxy)benzyl]-8-azabicyclo[3.2.1]oct-3-yl}acetamide] are 70 nM and 770 nM. For `c1ccc(SC2CCN(Cc3ccc(Oc4nc5ncccc5s4)cc3)CC2)nc1` [Example 263, 2-(4-{[4-(Pyridin-2-ylsulfanyl)piperidin-1-yl]methyl}phenoxy)[1,3]thiazolo[4,5-b]pyridine] the same measures were 4 nM and 462 nM. For `c1cnc2nc(Oc3ccc(CN4CCC(N5CCCCC5)CC4)cc3)sc2c1` [Example 256, 1′-[4-([1,3]Thiazolo[4,5-b]pyridin-2-yloxy)benzyl]-1,4′-bipiperidine] the same measures were 87 nM and 178 nM. Turning to `CC(=O)N1C[C@H]2CC[C@@H](C1)N2CCc1ccc(Oc2nc3cccnc3s2)cc1` [Example 53, meso-2-(4-{2-[3-Acetyl-3,8-diazabicyclo[3.2.1]oct-8-yl]ethyl}phenoxy)[1,3]thiazolo[5,4-b]pyridine], the concentration for half-maximal inhibition (IC50) in assay [1] stood at 58 nM; in assay [2], 2500 nM. For `NC(=O)N1C[C@H]2CC[C@@H](C1)N2Cc1ccc(Oc2nc3ncccc3s2)cc1` [Example 117, meso-8-[4-([1,3]Thiazolo[4,5-b]pyridin-2-yloxy)benzyl]-3,8-diazabicyclo[3.2.1]octane-3-carboxamide] the same measures were 9 nM and 18 nM. With `C[C@H](c1ccccc1)N(C)CCc1ccc(Oc2nc3ncccc3s2)cc1` [Example 58, (1R)—N-Methyl-1-phenyl-N-{2-[4-([1,3]thiazolo[4,5-b]pyridin-2-yloxy)phenyl]ethyl}ethanamine], the figures for the IC50 in assay [1] and in assay [2] were 8 nM and 45 nM, respectively. For `NC(=O)N1[C@@H]2CC[C@H]1CN(CCOc1ccc(Oc3nc4ncccc4s3)cc1)C2` [Example 149, meso-3-{2-[4-([1,3]Thiazolo[4,5-b]pyridin-2-yloxy)phenoxy]ethyl}-3,8-diazabicyclo[3.2.1]octane-8-carboxamide] the same measures were 63 nM and 180 nM. For `NC(=O)N[C@H]1C[C@H]2CC[C@@H](C1)N2CCc1ccc(Oc2nc3cccnc3s2)cc1` [Example 72, meso-1-[(3-endo)-8-{2-[4-([1,3]Thiazolo[5,4-b]pyridin-2-yloxy)phenyl]ethyl}-8-azabicyclo[3.2.1]oct-3-yl]urea] the same measures were 47 nM and 1040 nM. `c1cnc2nc(Oc3ccc(OCCN4CCC(c5ccncc5)CC4)cc3)sc2c1` [Example 29, 2-{4-[2-(4-Pyridin-4-ylpiperidin-1-yl)ethoxy]phenoxy}[1,3]thiazolo[4,5-b]pyridine]: the IC50 was found to be 13 nM in assay [1] and 180 nM in assay [2].

For `CCCCN(CC)CCc1ccc(Oc2nc3ncc(C)cc3s2)cc1` [Example 178, N-Ethyl-N-(2-{4-[(6-methyl[1,3]thiazolo[4,5-b]pyridin-2-yl)oxy]phenyl}ethyl)butan-1-amine], the values for the IC50 in assay [1] and in assay [2] were 11 nM and 260 nM, respectively. For `OC1(c2cccc(C(F)(F)F)c2)CCN(CCOc2ccc(Oc3nc4nccnc4s3)cc2)CC1` [Example 24, 1-{2-[4-([1,3]Thiazolo[4,5-b]pyrazin-2-yloxy)phenoxy]ethyl}-4-[3-(trifluoromethyl)phenyl]piperidin-4-ol] the same measures were 52 nM and 750 nM.

Take `c1ccc(CC2CCN(Cc3ccc(Oc4nc5ncccc5s4)cc3)CC2)cc1` [Example 102, 2-{4-[(4-Benzylpiperidin-1-yl)methyl]phenoxy}[1,3]thiazolo[4,5-b]pyridine]: the IC50 in assay [1] was 15 nM; in assay [2], 210 nM.

Regarding `NC(=O)N[C@H]1C[C@H]2CC[C@@H](C1)N2CCc1ccc(Oc2nc3ncccc3s2)cc1` [Example 77, meso-1-[(3-endo)-8-{2-[4-([1,3]Thiazolo[4,5-b]pyridin-2-yloxy)Phenyl]ethyl}-8-azabicyclo[3.2.1]oct-3-yl]urea], the IC50 in assay [1] was 2.9 nM; in assay [2], 190 nM.

For the compound `Clc1cnc2nc(Oc3ccc(CN4CCCCC4)cc3)sc2c1` [Example 279, 6-Chloro-2-(4-piperidin-1-ylmethyl-phenoxy)[1,3]thiazolo[4,5-b]pyridine], the IC50 in assay [2] came to 550 nM.

In the case of `Cc1ccnc2sc(Oc3ccc(CN4CCCCC4)cc3)nc12` [Example 280, 7-Methyl-2-[4-(piperidin-1-ylmethyl)phenoxy][1,3]thiazolo[5,4-b]pyridine], the IC50 in assay [1] was above 10000 nM.
